Data taken from ChEMBL document CHEMBL5352436, “Triterpenoid pyrazines and pyridines - Synthesis, cytotoxicity, mechanism of action, preparation of prodrugs” (Eur J Med Chem, 2022).

Legend:
U2OS = assay: Cytotoxicity against human U2OS cells assessed as reduction in cell viability incubated for 72 hrs by MTS assay; assay type: functional, cell-based
A549 = assay: Cytotoxicity against human A549 cells assessed as reduction in cell viability incubated for 72 hrs by MTS assay; assay type: functional, cell-based; details: A549, 72 h
[1] = Cytotoxicity against human BJ cells assessed as reduction in cell viability incubated for 72 hrs by MTS assay; assay type: toxicity, cell-based
CCRF-CEM = assay: Cytotoxicity against human CCRF-CEM cells assessed as reduction in cell viability incubated for 72 hrs by MTS assay; assay type: functional, cell-based
HCT-116 = assay: Cytotoxicity against human HCT-116 cells assessed as reduction in cell viability incubated for 72 hrs by MTS assay; assay type: functional, cell-based; details: HCT-116, 72 h
[2] = Cytotoxicity against human K562-Tax cells assessed as reduction in cell viability incubated for 72 hrs by MTS assay; assay type: functional, cell-based
K562 = assay: Cytotoxicity against human K562 cells assessed as reduction in cell viability incubated for 72 hrs by MTS assay; assay type: functional, cell-based; details: K562, 72 h
[3] = Cytotoxicity against human MRC5 cells assessed as reduction in cell viability incubated for 72 hrs by MTS assay; assay type: toxicity, cell-based
CEM-DNR = assay: Cytotoxicity against human CEM-DNR cells assessed as reduction in cell viability incubated for 72 hrs by MTS assay; assay type: functional, cell-based
[4] = Cytotoxicity against human HCT116-p53-null cells assessed as reduction in cell viability incubated for 72 hrs by MTS assay; assay type: functional, cell-based

| SMILES | IC50 (U2OS) [µM] | IC50 (A549) [µM] | IC50 at 72 h [1] [µM] | IC50 (CCRF-CEM) [µM] | IC50 (HCT-116) [µM] | IC50 [2] [µM] | IC50 (K562) [µM] | IC50 at 72 h [3] [µM] | IC50 (CEM-DNR) [µM] | IC50 [4] [µM] |
| --- | --- | --- | --- | --- | --- | --- | --- | --- | --- | --- |
| CC1(C)CC[C@]23CC[C@]4(C)[C@H](CC[C@@H]5[C@@]6(C)Cc7cccnc7C(C)(C)[C@@H]6CC[C@]54C)[C@H]2[C@H]1OC3 | > 50 | > 50 | > 50 | > 50 | > 50 | > 50 | > 50 | > 50 | > 50 | > 50 |
| CC1(C)CC[C@]2(C(=O)O)CC[C@]3(C)C(=CC[C@@H]4[C@@]5(C)Cc6nccnc6C(C)(C)[C@@H]5CC[C@]43C)[C@@H]2C1 | > 50 | 50 | > 50 | 18 | 50 | 34 | > 50 | > 50 | 14 | > 50 |
| C[C@H]1[C@H](C)CC[C@]2(C(=O)O)CC[C@]3(C)C(=CC[C@@H]4[C@@]5(C)CCC(=O)C(C)(C)[C@@H]5CC[C@]43C)[C@H]12 [URSONIC ACID] | > 50 | 50 | > 50 | 16 | 47 | 27 | > 50 | > 50 | 19 | > 50 |
| C=C(C)[C@@H]1CC[C@]2(C(=O)O)CC[C@]3(C)[C@H](CC[C@@H]4[C@@]5(C)CCC(=O)C(C)(C)[C@@H]5CC[C@]43C)[C@@H]12 [BETUNOLIC ACID] | – | – | 39 | – | – | 15 | – | – | 11 | 49 |
| Cc1oc(=O)oc1COC(=O)[C@]12CC[C@@H](C(C)C)[C@@H]1[C@H]1CC[C@@H]3[C@@]4(C)Cc5cccnc5C(C)(C)[C@@H]4CC[C@@]3(C)[C@]1(C)CC2 | > 50 | > 50 | > 50 | 46 | > 50 | > 50 | 0.043 | > 50 | 50 | > 50 |
| C=C(C)[C@@H]1CC[C@]2(C(=O)OCc3oc(=O)oc3C)CC[C@]3(C)[C@H](CC[C@@H]4[C@@]5(C)Cc6nccnc6C(C)(C)[C@@H]5CC[C@]43C)[C@@H]12 | 45 | 10 | > 50 | 3.6 | 40 | 13 | > 50 | > 50 | 0.49 | 49 |
| CC1=CC[C@]2(C(=O)O)CC[C@]3(C)[C@H](CC[C@@H]4[C@@]5(C)Cc6nccnc6C(C)(C)[C@@H]5CC[C@]43C)[C@H]2[C@@H]1C | 46 | 44 | > 50 | 7.2 | 48 | 10 | 18 | > 50 | 10 | 50 |
| C#CCOC(=O)[C@]12CC[C@@H](C(=C)C)[C@@H]1[C@H]1CC[C@@H]3[C@@]4(C)CC[C@H](O)C(C)(C)[C@@H]4CC[C@@]3(C)[C@]1(C)CC2 | 31 | 43 | 32 | 24 | 33 | 36 | 43 | 26 | 40 | 31 |
| CC1=CC[C@]2(C(=O)O)CC[C@]3(C)[C@H](CC[C@@H]4[C@@]5(C)CCC(=O)C(C)(C)[C@@H]5CC[C@]43C)[C@H]2[C@@H]1C | 24 | 24 | 35 | 6.5 | 32 | 28 | 8.5 | 33 | 11 | 35 |
| C[C@H]1[C@H](C)CC[C@]2(C(=O)O)CC[C@]3(C)C(=CC[C@@H]4[C@@]5(C)Cc6cccnc6C(C)(C)[C@@H]5CC[C@]43C)[C@H]12 | > 50 | > 50 | > 50 | 38 | > 50 | 47 | 32 | > 50 | 40 | > 50 |
| C=C(C)[C@@H]1CC[C@]2(C(=O)OCc3oc(=O)oc3C)CC[C@]3(C)[C@H](CC[C@@H]4[C@@]5(C)Cc6cccnc6C(C)(C)[C@@H]5CC[C@]43C)[C@@H]12 | > 50 | 50 | > 50 | 35 | > 50 | 49 | 0.037 | > 50 | 48 | > 50 |
